In EP0326329B1, “Quinazoline derivatives useful as insecticides” (Dow AgroSciences LLC, priority 1988, dated 1989):

Key:
Type in all cases: in vivo
[1] = tested on: Venturia inaequalis (apple scab); experiment: Greenhouse Test 1, foliar spray fungicide screen (APPL SCAB), host apple seedling; conditions: disease control rating, 400 ppm (+++ at 100 ppm)
[2] = tested on: southern armyworm (Spodopetra eridania Cramer); experiment: Mite/insect screen, sprayed squash leaves (SAW); conditions: percent mortality; for mortality at 200 ppm / mortality at 400 ppm: Spodoptera eridania, read-out: SAW RESULTS %; for mortality at 200 ppm: spray rate 200 ppm
Method in brief: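 Compounds were dissolved in 50:50 acetone/alcohol containing sulfonate/nonionic emulsifier blends (23 g and 13 g per liter) and diluted with water to test concentrations. Leaves were sprayed on both surfaces to runoff and dried for one hour. Percent mortality and phytotoxicity were scored after standard exposure periods.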

[3] = tested on: Pseudoperonospora cubensis (downy mildew); experiment: Greenhouse Test 1, foliar spray fungicide screen (DOWN MDEW), host squash; conditions: disease control rating, 400 ppm (+++ at 100 ppm)
[4] = tested on: Botrytis cinerea (gray mold); experiment: Greenhouse Test 1, foliar spray fungicide screen (GRAY MOLD), host grape berries; conditions: disease control rating, 400 ppm (+++ at 100 ppm)
[5] = tested on: Twospotted spider mites (Tetranychus urticae Koch); experiment: Mite/insect screen, sprayed squash cotyledons (SM); conditions: percent mortality; for mortality at 200 ppm / mortality at 400 ppm: Tetranychus urticae, read-out: SM RESULTS %; for mortality at 200 ppm: spray rate 200 ppm
Method in brief: (§1)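 Compounds dissolved in acetone/alcohol with TOXIMUL R/S emulsifiers, diluted with water to test concentrations, and sprayed to runoff on both leaf surfaces at 10 psi, then dried 1 h. Excised treated squash leaves given southern armyworm larvae; aphid and spider mite tests on sprayed squash cotyledons. Percent mortality and phytotoxicity scored after standard exposure.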

[6] = tested on: Southern corn rootworm (Diabrotica undecimpuctata howardi Barber); experiment: Mite/insect screen, soil treatment (CRW); conditions: percent mortality, soil treatment; for mortality at 12 ppm / mortality at 24 ppm: Diabrotica, read-out: CRW RESULTS %; for mortality at 12 ppm: CRW rate 12.00 ppm
Method in brief: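 Compounds dissolved in acetone/alcohol (50:50) with Toximul R/S emulsifiers, diluted with water. Soil (15 g, with presoaked corn seed) treated with 1 mL test solution, dried 6–12 h, then five 2–3 instar larvae added; held at 23°C. Percent mortality and phytotoxicity scored after standard exposure periods.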

[7] = tested on: Puccinia recondita tritici (leaf rust); experiment: Greenhouse Test 1, foliar spray fungicide screen (LEAF RUST), host wheat; conditions: disease control rating, 400 ppm (+++ at 100 ppm)
[8] = tested on: Erysiphe graminis tritici (powdery mildew); experiment: Greenhouse Test 1, foliar spray fungicide screen (POWD MDEW), host wheat; conditions: disease control rating, 400 ppm (+++ at 100 ppm)
[9] = tested on: melon aphids (Aphis gossypii Glover); experiment: Mite/insect screen, sprayed squash cotyledons (MA); conditions: percent mortality; for mortality at 200 ppm / mortality at 400 ppm: Aphis gossypii, read-out: MA RESULTS %; for mortality at 200 ppm: spray rate 200 ppm
Method in brief: as §1

[10] = tested on: Pyricularia oryzae (rice blast); conditions: disease control rating, foliar spray, host rice; 400 ppm (+++ at 100 ppm)
[11] = tested on: Septoria tritici (leaf blotch); experiment: Greenhouse Test 1, foliar spray fungicide screen (LEAF BLOT), host wheat; conditions: disease control rating, 400 ppm (+++ at 100 ppm)
[12] = tested on: Cercospora beticola (leaf spot); experiment: Greenhouse Test 1, foliar spray fungicide screen (LEAF SPOT), host sugar beet; conditions: disease control rating, 400 ppm (+++ at 100 ppm)

SMILES	APPL SCAB [1]	mortality at 200 ppm [2] [%]	mortality at 400 ppm ([2]; spray rate 400 ppm) [%]	DOWN MDEW [3]	GRAY MOLD [4]	mortality at 200 ppm [5] [%]	mortality at 400 ppm ([5]; spray rate 400 ppm) [%]	mortality at 12 ppm [6] [%]	mortality at 24 ppm ([6]; CRW rate 24.00 ppm) [%]	LEAF RUST [7]	POWD MDEW [8]	mortality at 200 ppm [9] [%]	mortality at 400 ppm ([9]; spray rate 400 ppm) [%]	RICE BLAST [10]	LEAF BLOT [11]	LEAF SPOT [12]	SAW RESULTS % ([2]; spray rate 400 ppm) [%]	SM RESULTS % ([5]; spray rate 400 ppm) [%]	CRW RESULTS % ([6]; CRW rate 24.00 ppm) [%]	MA RESULTS % ([9]; spray rate 400 ppm) [%]
Cc1ccc(CCOc2ncnc3ccccc23)cc1 [Example 87, 4-[2-(4-methylphenyl)ethoxy]quinazoline]	- (- = 0-19% control at 400 ppm)	0	50	+++ (+++ = 90-100% control at 100 ppm)	- (- = 0-19% control at 400 ppm)	90	90	0	0	++ (++ = 90-100% control at 400 ppm)	++ (++ = 90-100% control at 400 ppm)	100	100	+++ (+++ = 90-100% control at 100 ppm)	- (- = 0-19% control at 400 ppm)	+ (+ = 20-89% control at 400 ppm)	–	–	–	–
COc1ccccc1CCNc1nc(NCCc2ccccc2OC)c2ccccc2n1 [Example 25, N,N'-bis[2-(2-methoxyphenyl)ethyl]-2,4-quinazolinediamine]	- (- = 0-19% control at 400 ppm)	0	–	++ (++ = 90-100% control at 400 ppm)	–	0	–	0	–	+ (+ = 20-89% control at 400 ppm)	- (- = 0-19% control at 400 ppm)	0	–	+ (+ = 20-89% control at 400 ppm)	- (- = 0-19% control at 400 ppm)	- (- = 0-19% control at 400 ppm)	–	–	–	–
CCCCOc1ccc(CCOc2ncnc3ccccc23)cc1 [Example 180, 4-[2-(4-butoxyphenyl)ethoxy]quinazoline]	–	0	100	+++ (+++ = 90-100% control at 100 ppm)	- (- = 0-19% control at 400 ppm)	80	100	0	0	+++ (+++ = 90-100% control at 100 ppm)	+++ (+++ = 90-100% control at 100 ppm)	50	100	+++ (+++ = 90-100% control at 100 ppm)	–	–	–	–	–	–
COc1cc(CCOc2ncnc3ccccc23)ccc1O [Example 147]	–	0	0	+++ (+++ = 90-100% control at 100 ppm)	- (- = 0-19% control at 400 ppm)	0	0	0	0	+++ (+++ = 90-100% control at 100 ppm)	+++ (+++ = 90-100% control at 100 ppm)	50	0	- (- = 0-19% control at 400 ppm)	–	–	–	–	–	–
CC(C)(C)c1ccc(CCOc2ncnc3cc(Cl)ccc23)cc1 [Example 136, 7-chloro-4-[2-[4-(1,1-dimethylethyl)phenyl]ethoxy]quinazoline]	–	100	0	- (- = 0-19% control at 400 ppm)	- (- = 0-19% control at 400 ppm)	0	0	0	0	- (- = 0-19% control at 400 ppm)	- (- = 0-19% control at 400 ppm)	0	0	- (- = 0-19% control at 400 ppm)	–	–	–	–	–	–
CC(C)(C)c1ccc(CCOc2ncnc3c(F)cccc23)cc1 [Example 94, 8-fluoro-4-[2-[4-(t-butyl)phenyl]ethoxy]quinazoline]	–	100	100	+++ (+++ = 90-100% control at 100 ppm)	- (- = 0-19% control at 400 ppm)	100	0	0	0	+++ (+++ = 90-100% control at 100 ppm)	+++ (+++ = 90-100% control at 100 ppm)	80	0	+++ (+++ = 90-100% control at 100 ppm)	–	–	–	–	–	–
Fc1cccc2c(OCCc3cccc(Oc4ccccc4)c3)ncnc12 [Example 163, 8-fluoro-4-[2-(3-phenoxyphenyl)ethoxy]quinazoline]	–	80	40	+++ (+++ = 90-100% control at 100 ppm)	- (- = 0-19% control at 400 ppm)	0	20	0	0	+++ (+++ = 90-100% control at 100 ppm)	+++ (+++ = 90-100% control at 100 ppm)	80	80	+++ (+++ = 90-100% control at 100 ppm)	–	–	–	–	–	–
CC(COc1ncnc2ccccc12)c1ccc(-c2ccccc2)cc1 (stereo not drawn) [Example 187, 4-[2-(1,1'-biphenyl)-4-ylpropoxy]quinazoline]	–	0	0	+ (+ = 20-89% control at 400 ppm)	- (- = 0-19% control at 400 ppm)	0	0	0	0	+ (+ = 20-89% control at 400 ppm)	- (- = 0-19% control at 400 ppm)	0	0	+++ (+++ = 90-100% control at 100 ppm)	–	–	–	–	–	–
c1ccc(Oc2ccc(CCCOc3ncnc4ccccc34)cc2)cc1 [Example 151, 4-[3-(4-phenoxyphenyl)propoxy]quinazoline]	–	0	0	- (- = 0-19% control at 400 ppm)	- (- = 0-19% control at 400 ppm)	0	0	0	0	- (- = 0-19% control at 400 ppm)	+ (+ = 20-89% control at 400 ppm)	80	0	- (- = 0-19% control at 400 ppm)	–	–	–	–	–	–
CC(C)(C)c1ccc(CCOc2ncnc3ccc(Br)cc23)cc1 [Example 175, 6-bromo-4-[2-[4-(t-butyl)phenyl]ethoxy]quinazoline]	–	100	0	- (- = 0-19% control at 400 ppm)	- (- = 0-19% control at 400 ppm)	60	0	0	0	+ (+ = 20-89% control at 400 ppm)	- (- = 0-19% control at 400 ppm)	80	0	++ (++ = 90-100% control at 400 ppm)	–	–	0	0	0	0
